Experimental data: patent US10064942B2, “Copper-cysteamine and methods of use” (THE BOARD OF REGENTS, THE UNIVERSITY OF TEXAS SYSTEM, priority 2013, dated 2018)

What was measured:
[1] = tested on: human breast cancer (MCF-7) cells; assay: X-ray destruction of MCF-7 cells, calcein/EthD-1 fluorescence imaging; format: cell-based
Source text: FIGS. 13A-13D depict the comparison of X-ray (2 Gy) destruction on human breast cancer (MCF-7) cells without (top row, FIG. 14A and FIG. 14B) and with (bottom row, FIG. 14C and FIG. 14D) Cu-Cy crystals. […] The scale bar is always 100 μm.
As stated herein above, the disclosed Cu-Cy compound also absorbs X-rays and emits a luminescent spectrum. FIG. 13A-13D depicts the MCF-7 cell viabilities by fluorescence images with and without Cu-Cy crystals and with and without X-ray irradiation. As with UV radiation, X-ray irradiation of cells incubated with the disclosed Cu-Cy complex is also an effective method for causing cell death.
FIGS. 14A-D depict fluorescence images of MCF-7 cells before and after 1 Gy X-ray exposure by an OLYMPUS IX71 microscope. Calcein and ethidiumhomodimer 1 (EthD-1) were used as the stains showing cells alive (green) and dead (red) respectively. Each of the images was taken immediately after staining, without further cell incubation.
MCF-7 cells were seeded into two 6-well plates (A and B) at 5,000 cells/well and incubated for 48 h at 37° C. in a humidified atmosphere of 5% v/v CO2 at dark. On the day of the experiment, the culture medium was removed and 5 mL medium containing 0 and 40 μg/ml Cu-Cy particles were added to different wells. […] The cells were viewed under an OLYMPUS IX71 fluorescence microscope.

[2] = tested on: human breast cancer (MCF-7) cells; assay: UV light (350 nm) destruction of MCF-7 cells, fluorescence imaging; format: cell-based; conditions: MCF-7 cells exposed to Cu-Cy and irradiated with UV light (350 nm)
Source text: FIGS. 12A-12D depict the comparison of UV light (350 nm) destruction on human breast cancer (MCF-7) cells without (top row, FIG. 12A and FIG. 12B) and with (bottom row, FIG. 12C and FIG. 12D) Cu-Cy crystals. […] The scale bar is always 100 μm.
Photo-induced toxicity was then applied to cancer cells.

[3] = tested on: human hepatocellular liver cells (HEPT); assay: UV light (350 nm) destruction of liver cells, calcein/EthD-1 fluorescence imaging; format: cell-based
Source text: FIGS. 11A-11D depict the comparison of UV light (350 nm) destruction on human hepatocellular liver cells (HEPT) without (top row, FIG. 11A and FIG. 11B) and with (bottom row, FIG. 11C and FIG. 11D) Cu-Cy crystals. […] The scale bar is always 100 μm.
FIGS. 11A-11D depict the effectiveness of the Cu-Cy material as causing cell death when irradiated with UV light or X-ray. For example, in FIGS. 11A-11D, the fluorescence images of human hepatocellular liver cells were taken before and after the UV light exposure (350 nm, for 2 minutes, from an OLYMPUS IX71 microscope). Calcein and Ethidium homodimer 1 (EthD-1) were used as the stains showing cell alive (green) and death (red) respectively.
Each of the images was taken right after the staining without further liver cell incubation.

Stability in solution = format: physicochemical; conditions: aqueous solution and other common solvents
MCF-7 tumors = format: in vivo, nude mice
Procedure: A suspension of 10×10^6MCF-7 cancer cell lines was injected subcutaneously into flanks on both shoulder and leg area of nude mice. Mice were monitored on a daily basis for the growth of tumors (FIG. 24). […] Saline (10 μL, as control, left shoulder) and Cu-Cy with concentration about 0.8 mg/mL (10 μL-right shoulder, 15 μL-left leg and 20 μL-right leg) were injected intra-tumorally. At one minute post-injection, mice were anesthetized with 2% (v/v) isofluorane, and tumors were irradiated with an X-ray dose of 5 Gy. Without X-ray treatment (top row), the tumors grew as time progressed, and there was no apparent size difference among Cu-Cy dosages of 10, 15, and 20 μl. Meanwhile, the tumors with no Cu-Cy (saline only) treatment were larger than the tumors with Cu-Cy treatment. […] The animals were sacrificed via CO2 inhalation and cervical […] on the day 13 of tumor growth. Absent X-ray radiation (top row), the tumors without Cu-Cy treatment grew to a somewhat larger volume than those treated by Cu-Cy, which indicates the minor toxicity from the Cu-Cy particles themselves. […] This is seen by comparing the two tumors treated with saline with and without X-ray radiation. For the treatment with 20 μL of Cu-Cy particles at 5 Gy dose, the tumor size is reduced to about 3 mm in diameter while the untreated tumor size is about 10 mm in diameter.

MCF-7 cells = assay: MTT cytotoxicity of Cu-Cy crystals in MCF-7 cells; format: cell-based, human; conditions: 24 h incubation
Procedure: The toxicity of Cu-Cy crystals in MCF-7 cells was evaluated using an MTT (3-(4,5-dimethylthiazol-2-yl)-2,5-diphenyltetrazoliumbromide) assay. 2 mg of the Cu-Cy crystals were well ground and sonicated before being dissolved in 1 mL of DI water (control) for the measurement.
Cytotoxicity was evaluated using the MTT assay. Approximately 2,000 cells/well MCF-7 cells were seeded into 96-well plates and allowed to grow for 48 hours in an incubator (Sanyo, Japan, 5% CO2, 37° C., humidified atmosphere). On the day of the experiment, after removing the culture medium, different volumes of media containing Cu-Cy particles were added to their respective wells and cytotoxicity was evaluated after 24 h of cell incubation

[4] = tested on: human prostate cancer (PC3) cells; assay: X-ray (2 Gy) destruction of PC3 cells, fluorescence imaging; format: cell-based; conditions: Cu-Cy crystals plus X-ray 2 Gy
Source text: FIGS. 14A-14D depict the comparison of X-ray (2 Gy) destruction on human prostate cancer (PC3) cells without (top row, FIG. 14A and FIG. 14B) and with (bottom row, FIG. 14C and FIG. 14D) Cu-Cy crystals. […] The scale bar is always 100 μm.
As such, the combination of the disclosed Cu-Cy material and a source of radiation provides an effective method for inducing cell death.

Cu3Cl(SR)2 wherein R is —CH2CH2NH2 [Cu-Cy]
cell destruction ([1]; Cu-Cy coupled with X-ray treatment (1 Gy; 2 Gy elsewhere in the source)): significant cell destruction | cell death ([1]; Cu-Cy particles alone, no X-ray): little cell death | cellular death [2]: significant cellular death | cell death ([3]; Cu-Cy crystals alone, no UV irradiation): does not result in significant cell death | cell death ([3]; Cu-Cy crystals plus UV light 350 nm for 2 minutes): significant cell death | stability (Stability in solution): stable in aqueous solution | tumor size (diameter) (MCF-7 tumors; 20 μL Cu-Cy (about 0.8 mg/mL) intra-tumoral, X-ray 5 Gy, day 13): about 3 mm | toxicity of Cu-Cy particles themselves in vivo (MCF-7 tumors; mouse, in vivo): slight toxicity in vivo | tumor growth (MCF-7 tumors; with X-ray radiation 5 Gy, 15 and 20 μL Cu-Cy dosages): greatly reduced | tumor size or growth (MCF-7 tumors; without X-ray, Cu-Cy 10, 15, 20 μL): does not significantly reduce tumor size or growth | cellular viability (MCF-7 cells; Cu-Cy 0.1 μg/ml): about 95% | cellular viability (MCF-7 cells; Cu-Cy 200 μg/ml): about 70% | cell death [4]: Significant cell death
